Assays:
[1] = system: normal NK cells expanded with K562-aAPC; test: percent inhibition of viability; higher = more inhibition; details: 72 h, IL-2 2.5 ng/mL
Procedure: (§1)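 Drug sensitivity and resistance testing on K562-aAPC-expanded normal NK cells: 5 concentrations (10-fold steps over a 10,000-fold range), 72 h at 37 °C, viability by CellTiter-Glo normalised to DMSO and benzethonium chloride controls; DSS from the fitted curve.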

[2] = system: normal NK cells expanded with K562-aAPC; test: drug sensitivity score (DSS) (DSS units); higher = more sensitive; extreme values may be limits of the assay; details: 72 h; IL-2 2.5 ng/mL
Procedure: as §1

[3] = system: NK-92 (IL-2 2.5 ng/mL); test: percent inhibition of viability; higher = more inhibition; details: 72 h
[4] = system: KAI3 (IL-2 2.5 ng/mL); test: as above; details: 72 h
[5] = system: NKL (IL-2 2.5 ng/mL); test: as above; details: 72 h
[6] = system: NK-YS (IL-2 2.5 ng/mL); test: as above; details: 72 h
[7] = system: SNK-6 (IL-2 2.5 ng/mL); test: as above; details: 72 h
[8] = system: YT (IL-2 2.5 ng/mL); test: as above; details: 72 h
[9] = system: normal primary NK cells, pool 1 (3 donors), resting (IL-2 0 ng/mL); test: as above; details: 72 h
[10] = system: IMC-1 (IL-2 20 ng/mL); test: as above; details: 72 h
[11] = system: DERL-7 (IL-2 2.5 ng/mL); test: as above; details: 72 h
[12] = system: normal primary NK cells, pool 1 (3 donors) (IL-2 2.5 ng/mL); test: as above; details: 72 h
[13] = system: normal primary NK cells, pool 3 (3 donors) (IL-2 2.5 ng/mL); test: as above; details: 72 h
[14] = system: KHYG-1 (IL-2 2.5 ng/mL); test: as above; details: 72 h
[15] = system: normal primary NK cells, pool 2 (3 donors) (IL-2 2.5 ng/mL); test: as above; details: 72 h
[16] = system: NK-92 (IL-2 2.5 ng/mL); test: drug sensitivity score (DSS) (DSS units); higher = more sensitive; extreme values may be limits of the assay; details: 72 h
[17] = system: KAI3 (IL-2 2.5 ng/mL); test: as above; details: 72 h
[18] = system: NKL (IL-2 2.5 ng/mL); test: as above; details: 72 h
[19] = system: NK-YS (IL-2 2.5 ng/mL); test: as above; details: 72 h
[20] = system: SNK-6 (IL-2 2.5 ng/mL); test: as above; details: 72 h
[21] = system: YT (IL-2 2.5 ng/mL); test: as above; details: 72 h
[22] = system: normal primary NK cells, pool 1 (3 donors), resting (IL-2 0 ng/mL); test: as above; details: 72 h
[23] = system: IMC-1 (IL-2 20 ng/mL); test: as above; details: 72 h
[24] = system: DERL-7 (IL-2 2.5 ng/mL); test: as above; details: 72 h
[25] = system: normal primary NK cells, pool 1 (3 donors) (IL-2 2.5 ng/mL); test: as above; details: 72 h
[26] = system: normal primary NK cells, pool 3 (3 donors) (IL-2 2.5 ng/mL); test: as above; details: 72 h
[27] = system: KHYG-1 (IL-2 2.5 ng/mL); test: as above; details: 72 h
[28] = system: normal primary NK cells, pool 2 (3 donors) (IL-2 2.5 ng/mL); test: as above; details: 72 h

C[C@@H]1CN(Cc2ccc(F)cc2)[C@@H](C)CN1C(=O)c1cc2c(C(=O)C(=O)N(C)C)cn(C)c2cc1Cl [Talmapimod] (max concentration tested 10000 nM)
percent inhibition of viability [%]
Details	1 nM	10 nM	100 nM	1000 nM	10000 nM
[1]	-9.71	-4.89	-9.38	-4.26	-10.1
[3]	-13.6	-14.2	-7.08	-0.77	6.94
[4]	-4.84	8.7	21.6	21.2	32.1
[5]	-6.18	-3.36	7.54	9.7	22.9
[6]	-5.34	-2.3	1.96	6.17	14.5
[7]	-0.46	-0.9	-3.03	-23.7	-10.1
[8]	-3.64	-1.4	4.73	5.29	14.3
[9]	-0.54	-6.9	17.6	15.2	37
[10]	-2.4	-5.13	-5.16	-10.4	0.72
[11]	-8.76	3.34	-3.64	2.18	-3.8
[12]	-13.6	-10.8	-4.95	-6.75	2.92
[13]	-3.75	4.83	4.73	0.2	1.78
[14]	-8.74	-9.48	-3.07	-9.07	-3.04
[15]	-0.88	-7.3	-3.09	1.69	0.02

Details	drug sensitivity score
[2]	0
[16]	0
[17]	6.42
[18]	1.47
[19]	0.37
[20]	0
[21]	0.18
[22]	4.01
[23]	0
[24]	0
[25]	0
[26]	0
[27]	0
[28]	0

NC(=O)Nc1sc(-c2ccc(F)cc2)cc1C(N)=O [TPCA-1] (max concentration tested 25000 nM)
percent inhibition of viability [%]
Details	2.5 nM	25 nM	250 nM	2500 nM	25000 nM
[1]	-0.68	-4.88	18.2	88.4	98.1
[3]	-11.2	-10.8	8.78	80.4	91.7
[4]	-6.8	-3.3	53.5	89.1	91.4
[5]	-2.04	-2.79	45.8	72.9	87.4
[6]	-6.85	-4.02	17	58	94.8
[7]	-12.6	-19.3	33.2	75.8	93.2
[8]	-3.91	-4.44	13.1	79.6	97.9
[9]	-1.07	1.15	3.48	43.5	82.3
[10]	-2.64	-8.76	-6.99	3.86	99.3
[11]	0.71	4.69	36.8	94	100
[12]	-12.8	-10.6	13.2	73.4	94.3
[13]	-6.13	-4.52	15.6	67.3	91.3
[14]	-2.05	-6.88	25.8	101	97.8
[15]	-8.08	-4.41	24.2	69.5	87.1

Details	drug sensitivity score
[2]	18.4
[16]	15.9
[17]	23
[18]	20
[19]	13.2
[20]	18.2
[21]	16.3
[22]	9.72
[23]	6.04
[24]	21.5
[25]	15.2
[26]	14.5
[27]	21.9
[28]	15.8

Reference: the supplement of paper PMC5908809
